Results reported in ChEMBL document CHEMBL1629580, “Sec- and Tat-dependent translocation of beta-lactamases across the Escherichia coli inner membrane” (2009).
Converted amounts (≈) assume the structure as drawn.

Columns and labels:
Escherichia coli [1] = experiment: Antimicrobial activity against Escherichia coli CU164A harboring empty plasmid by liquid microdilution method; assay type: functional
Escherichia coli [2] = experiment: Antimicrobial activity against Escherichia coli CU164A harboring beta-lactamase L1 by liquid microdilution method; assay type: functional
Escherichia coli [3] = experiment: Antimicrobial activity against Escherichia coli MC4100A expressing beta-lactamase TEM-1 by liquid microdilution method; assay type: functional
Escherichia coli [4] = experiment: Antimicrobial activity against Escherichia coli MC4100A harboring beta-lactamase CTX-M-14 by liquid microdilution method; assay type: functional
Escherichia coli [5] = experiment: Antimicrobial activity against translocase tatC-deficient Escherichia coli B1LK0A harboring beta-lactamase L1 by liquid microdilution method; assay type: functional
Escherichia coli [6] = experiment: Antimicrobial activity against Escherichia coli CU164A harboring beta-lactamase CTX-M-14 by liquid microdilution method; assay type: functional
Escherichia coli [7] = experiment: Antimicrobial activity against translocase tatC-deficient Escherichia coli B1LK0A expressing beta-lactamase TEM-1 by liquid microdilution method; assay type: functional
Escherichia coli [8] = experiment: Antimicrobial activity against mreB-deficient Escherichia coli YLS-3 harboring beta-lactamase CTX-M-14 by liquid microdilution method; assay type: functional
Escherichia coli [9] = experiment: Antimicrobial activity against Escherichia coli CU164A harboring beta-lactamase AmpC by liquid microdilution method
Escherichia coli [10] = experiment: Antimicrobial activity against Escherichia coli CU164A harboring beta-lactamase L2 by liquid microdilution method
Escherichia coli [11] = experiment: Antimicrobial activity against Escherichia coli MC4100A harboring empty plasmid by liquid microdilution method; assay type: functional
Escherichia coli [12] = experiment: Antimicrobial activity against Escherichia coli MC4100A harboring beta-lactamase L2 by liquid microdilution method
Escherichia coli [13] = experiment: Antimicrobial activity against Escherichia coli CU164A expressing beta-lactamase TEM-1 by liquid microdilution method; assay type: functional
Escherichia coli [14] = experiment: Antimicrobial activity against mreB-deficient Escherichia coli YLS-3 harboring beta-lactamase L2 by liquid microdilution method; assay type: functional
Escherichia coli [15] = experiment: Antimicrobial activity against mreB-deficient Escherichia coli YLS-3 harboring empty plasmid by liquid microdilution method; assay type: functional
Escherichia coli [16] = experiment: Antimicrobial activity against mreB-deficient Escherichia coli YLS-3 harboring beta-lactamase L1 by liquid microdilution method
Escherichia coli [17] = experiment: Antimicrobial activity against mreB-deficient Escherichia coli YLS-3 expressing beta-lactamase TEM-1 by liquid microdilution method; assay type: functional
Escherichia coli [18] = experiment: Antimicrobial activity against Escherichia coli MC4100A harboring beta-lactamase L1 by liquid microdilution method; assay type: functional
Escherichia coli [19] = experiment: Antimicrobial activity against translocase tatC-deficient Escherichia coli B1LK0A harboring beta-lactamase CTX-M-14 by liquid microdilution method; assay type: functional
Escherichia coli [20] = experiment: Antimicrobial activity against translocase tatC-deficient Escherichia coli B1LK0A harboring beta-lactamase L2 by liquid microdilution method; assay type: functional
Escherichia coli [21] = experiment: Antimicrobial activity against translocase tatC-deficient Escherichia coli B1LK0A harboring empty plasmid by liquid microdilution method; assay type: functional
Escherichia coli [22] = experiment: Antimicrobial activity against translocase tatC-deficient Escherichia coli B1LK0A harboring beta-lactamase AmpC by liquid microdilution method
Escherichia coli [23] = experiment: Antimicrobial activity against mreB-deficient Escherichia coli YLS-3 harboring beta-lactamase AmpC by liquid microdilution method
Escherichia coli [24] = experiment: Antimicrobial activity against Escherichia coli MC4100A harboring beta-lactamase AmpC by liquid microdilution method; assay type: functional

CC1(C)S[C@@H]2[C@H](NC(=O)[C@H](N)c3ccc(O)cc3)C(=O)N2[C@H]1C(=O)O [AMOXICILLIN]
MIC (Escherichia coli [1]): 4 µg/mL (≈ 10.9 µM)
MIC (Escherichia coli [2]): 512 µg/mL (≈ 1400 µM)
MIC (Escherichia coli [3]): 1020 µg/mL (≈ 2800 µM)
MIC (Escherichia coli [4]): 2050 µg/mL (≈ 5600 µM)
MIC (Escherichia coli [5]): 512 µg/mL (≈ 1400 µM)
MIC (Escherichia coli [6]): 2050 µg/mL (≈ 5600 µM)
MIC (Escherichia coli [7]): 512 µg/mL (≈ 1400 µM)
MIC (Escherichia coli [8]): 1020 µg/mL (≈ 2800 µM)
MIC (Escherichia coli [9]): 512 µg/mL (≈ 1400 µM)
MIC (Escherichia coli [10]): 512 µg/mL (≈ 1400 µM)
MIC (Escherichia coli [11]): 4 µg/mL (≈ 10.9 µM)
MIC (Escherichia coli [12]): 64 µg/mL (≈ 175 µM)
MIC (Escherichia coli [13]): 1020 µg/mL (≈ 2800 µM)
MIC (Escherichia coli [14]): 256 µg/mL (≈ 701 µM)
MIC (Escherichia coli [15]): 4 µg/mL (≈ 10.9 µM)
MIC (Escherichia coli [16]): 512 µg/mL (≈ 1400 µM)
MIC (Escherichia coli [17]): 256 µg/mL (≈ 701 µM)
MIC (Escherichia coli [18]): 1020 µg/mL (≈ 2800 µM)
MIC (Escherichia coli [19]): 2050 µg/mL (≈ 5600 µM)
MIC (Escherichia coli [20]): 4 µg/mL (≈ 10.9 µM)
MIC (Escherichia coli [21]): 4 µg/mL (≈ 10.9 µM)
MIC (Escherichia coli [22]): 512 µg/mL (≈ 1400 µM)
MIC (Escherichia coli [23]): 128 µg/mL (≈ 350 µM)
MIC (Escherichia coli [24]): 512 µg/mL (≈ 1400 µM)

CO/N=C(\C(=O)N[C@@H]1C(=O)N2C(C(=O)O)=C(COC(C)=O)CS[C@H]12)c1csc(N)n1 [CEFOTAXIME]
MIC (Escherichia coli [2]): 1 µg/mL (≈ 2.2 µM)
MIC (Escherichia coli [3]): ≤ 0.06 µg/mL
MIC (Escherichia coli [4]): 16 µg/mL (≈ 35.1 µM)
MIC (Escherichia coli [5]): 1 µg/mL (≈ 2.2 µM)
MIC (Escherichia coli [6]): 16 µg/mL (≈ 35.1 µM)
MIC (Escherichia coli [7]): ≤ 0.06 µg/mL
MIC (Escherichia coli [8]): 4 µg/mL (≈ 8.78 µM)
MIC (Escherichia coli [9]): 0.5 µg/mL (≈ 1.1 µM)
MIC (Escherichia coli [10]): 2 µg/mL (≈ 4.39 µM)
MIC (Escherichia coli [12]): 2 µg/mL (≈ 4.39 µM)
MIC (Escherichia coli [13]): ≤ 0.06 µg/mL
MIC (Escherichia coli [14]): 0.06 µg/mL (≈ 0.132 µM)
MIC (Escherichia coli [16]): 0.06 µg/mL (≈ 0.132 µM)
MIC (Escherichia coli [17]): ≤ 0.06 µg/mL
MIC (Escherichia coli [18]): 1 µg/mL (≈ 2.2 µM)
MIC (Escherichia coli [19]): 16 µg/mL (≈ 35.1 µM)
MIC (Escherichia coli [22]): 0.5 µg/mL (≈ 1.1 µM)
MIC (Escherichia coli [23]): 0.12 µg/mL (≈ 0.263 µM)
MIC (Escherichia coli [24]): 0.5 µg/mL (≈ 1.1 µM)

CC(C)(O/N=C(\C(=O)N[C@@H]1C(=O)N2C(C(=O)[O-])=C(C[n+]3ccccc3)CS[C@H]12)c1csc(N)n1)C(=O)O [CEFTAZIDIME]
MIC (Escherichia coli [1]): ≤ 0.06 µg/mL
MIC (Escherichia coli [2]): 8 µg/mL (≈ 14.6 µM)
MIC (Escherichia coli [3]): ≤ 0.06 µg/mL
MIC (Escherichia coli [4]): 1 µg/mL (≈ 1.83 µM)
MIC (Escherichia coli [5]): 8 µg/mL (≈ 14.6 µM)
MIC (Escherichia coli [6]): 1 µg/mL (≈ 1.83 µM)
MIC (Escherichia coli [7]): ≤ 0.06 µg/mL
MIC (Escherichia coli [8]): 0.5 µg/mL (≈ 0.915 µM)
MIC (Escherichia coli [9]): 0.25 µg/mL (≈ 0.457 µM)
MIC (Escherichia coli [10]): 4 µg/mL (≈ 7.32 µM)
MIC (Escherichia coli [11]): ≤ 0.06 µg/mL
MIC (Escherichia coli [12]): 4 µg/mL (≈ 7.32 µM)
MIC (Escherichia coli [13]): ≤ 0.06 µg/mL
MIC (Escherichia coli [14]): 0.06 µg/mL (≈ 0.11 µM)
MIC (Escherichia coli [15]): ≤ 0.06 µg/mL
MIC (Escherichia coli [16]): 0.06 µg/mL (≈ 0.11 µM)
MIC (Escherichia coli [17]): ≤ 0.06 µg/mL
MIC (Escherichia coli [18]): 8 µg/mL (≈ 14.6 µM)
MIC (Escherichia coli [19]): 1 µg/mL (≈ 1.83 µM)
MIC (Escherichia coli [20]): ≤ 0.06 µg/mL
MIC (Escherichia coli [21]): ≤ 0.06 µg/mL
MIC (Escherichia coli [22]): 0.25 µg/mL (≈ 0.457 µM)
MIC (Escherichia coli [23]): 0.06 µg/mL (≈ 0.11 µM)
MIC (Escherichia coli [24]): 0.25 µg/mL (≈ 0.457 µM)

CC(=O)OCC1=C(C(=O)O)N2C(=O)[C@@H](NC(=O)Cc3cccs3)[C@H]2SC1 [CEPHALOTHIN]
MIC (Escherichia coli [1]): 4 µg/mL (≈ 10.1 µM)
MIC (Escherichia coli [2]): 128 µg/mL (≈ 323 µM)
MIC (Escherichia coli [3]): 32 µg/mL (≈ 80.7 µM)
MIC (Escherichia coli [4]): 1020 µg/mL (≈ 2580 µM)
MIC (Escherichia coli [5]): 128 µg/mL (≈ 323 µM)
MIC (Escherichia coli [6]): 1020 µg/mL (≈ 2580 µM)
MIC (Escherichia coli [7]): 16 µg/mL (≈ 40.4 µM)
MIC (Escherichia coli [8]): 128 µg/mL (≈ 323 µM)
MIC (Escherichia coli [9]): 512 µg/mL (≈ 1290 µM)
MIC (Escherichia coli [10]): 256 µg/mL (≈ 646 µM)
MIC (Escherichia coli [11]): 4 µg/mL (≈ 10.1 µM)
MIC (Escherichia coli [12]): 256 µg/mL (≈ 646 µM)
MIC (Escherichia coli [13]): 32 µg/mL (≈ 80.7 µM)
MIC (Escherichia coli [14]): 64 µg/mL (≈ 161 µM)
MIC (Escherichia coli [15]): ≤ 2 µg/mL
MIC (Escherichia coli [16]): 32 µg/mL (≈ 80.7 µM)
MIC (Escherichia coli [17]): 8 µg/mL (≈ 20.2 µM)
MIC (Escherichia coli [18]): 128 µg/mL (≈ 323 µM)
MIC (Escherichia coli [19]): 512 µg/mL (≈ 1290 µM)
MIC (Escherichia coli [20]): ≤ 2 µg/mL
MIC (Escherichia coli [21]): ≤ 2 µg/mL
MIC (Escherichia coli [22]): 256 µg/mL (≈ 646 µM)
MIC (Escherichia coli [23]): 256 µg/mL (≈ 646 µM)
MIC (Escherichia coli [24]): 1020 µg/mL (≈ 2580 µM)

CCN1CCN(C(=O)N[C@@H](C(=O)N[C@@H]2C(=O)N3[C@@H]2SC(C)(C)[C@@H]3C(=O)O)c2ccccc2)C(=O)C1=O [PIPERACILLIN]
MIC (Escherichia coli [1]): 2 µg/mL (≈ 3.86 µM)
MIC (Escherichia coli [2]): 32 µg/mL (≈ 61.8 µM)
MIC (Escherichia coli [3]): 512 µg/mL (≈ 989 µM)
MIC (Escherichia coli [4]): 512 µg/mL (≈ 989 µM)
MIC (Escherichia coli [5]): 32 µg/mL (≈ 61.8 µM)
MIC (Escherichia coli [6]): 512 µg/mL (≈ 989 µM)
MIC (Escherichia coli [7]): 128 µg/mL (≈ 247 µM)
MIC (Escherichia coli [8]): 128 µg/mL (≈ 247 µM)
MIC (Escherichia coli [9]): 32 µg/mL (≈ 61.8 µM)
MIC (Escherichia coli [10]): 128 µg/mL (≈ 247 µM)
MIC (Escherichia coli [11]): 2 µg/mL (≈ 3.86 µM)
MIC (Escherichia coli [12]): 128 µg/mL (≈ 247 µM)
MIC (Escherichia coli [13]): 256 µg/mL (≈ 495 µM)
MIC (Escherichia coli [14]): 32 µg/mL (≈ 61.8 µM)
MIC (Escherichia coli [15]): ≤ 2 µg/mL
MIC (Escherichia coli [16]): 32 µg/mL (≈ 61.8 µM)
MIC (Escherichia coli [17]): 32 µg/mL (≈ 61.8 µM)
MIC (Escherichia coli [18]): 64 µg/mL (≈ 124 µM)
MIC (Escherichia coli [19]): 512 µg/mL (≈ 989 µM)
MIC (Escherichia coli [20]): ≤ 2 µg/mL
MIC (Escherichia coli [21]): ≤ 2 µg/mL
MIC (Escherichia coli [22]): 32 µg/mL (≈ 61.8 µM)
MIC (Escherichia coli [23]): 16 µg/mL (≈ 30.9 µM)
MIC (Escherichia coli [24]): 32 µg/mL (≈ 61.8 µM)
